Four compounds from ChEMBL document CHEMBL1138986, “Novel bifunctional quinolonyl diketo acid derivatives as HIV-1 integrase inhibitors: design, synthesis, biological activities, and mechanism of action” (J Med Chem, 2006) can be followed below.

The term IC50 denotes the concentration at which inhibition is half-maximal. A word on the EC50: it is the concentration needed to bring the measured effect to its halfway point. A higher EC50 goes with a less potent agent. A word on the CC50: it is the concentration at which the toxic effect on the cells reaches its halfway point. Lower therefore signals greater toxicity to the cells.

For assay [1], the target named is T1, Human immunodeficiency virus type 1 integrase (Human immunodeficiency virus 1, UniProt Q7ZJM1). Put plainly: Inhibition of HIV1 integrase 3'-processing activity in presence of MnCl2.
Assay [2] has as its system Human immunodeficiency virus 1. Put plainly: Antiviral activity against HIV1 3B. Particulars: Human immunodeficiency virus 1, 3B. The format is functional, organism-based.
Assay [3] concerns U-937. Description: Cytotoxicity against U937 cell line. The class given is functional. Conditions: Homo sapiens.
For assay [4], the target named is T1, Human immunodeficiency virus type 1 integrase. Description: Inhibition of HIV1 integrase 3'-processing activity in presence of MgCl2.
The target is the same in assay [5]. Put plainly: Inhibition of HIV1 integrase strand transfer activity in presence of MnCl2.
In assay [6] the test system is U-937. Put plainly: Selectivity index (CC50/EC50). The format is functional.
Assay [7] deals with T1, Human immunodeficiency virus type 1 integrase. Description: Inhibition of HIV1 integrase strand transfer activity in presence of MgCl2 by plate-based electrochemiluminescent assay.
Assay [8] shares this target. Put plainly: Inhibition of HIV1 integrase strand transfer activity in presence of MgCl2 by gel-based assay.

T1 sequence (Q7ZJM1 whole entry): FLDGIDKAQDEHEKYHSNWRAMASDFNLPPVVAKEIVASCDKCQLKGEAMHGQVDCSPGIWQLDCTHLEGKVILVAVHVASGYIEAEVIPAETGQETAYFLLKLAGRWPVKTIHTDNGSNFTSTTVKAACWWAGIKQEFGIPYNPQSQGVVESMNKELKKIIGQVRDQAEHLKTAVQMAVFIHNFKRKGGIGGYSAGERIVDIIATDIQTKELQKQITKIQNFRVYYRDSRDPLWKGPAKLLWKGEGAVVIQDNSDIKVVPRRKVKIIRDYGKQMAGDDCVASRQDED

Regarding `CCOC(=O)C(=O)/C=C(\O)c1ccc2c(c1)c(=O)c(/C(O)=C/C(=O)C(=O)OCC)cn2Cc1ccc(F)cc1`, the IC50 in assay [1] was 40 µM; in assay [4] it was 21 µM; in assay [5] it was 0.25 µM; in assay [7], 0.38 µM; in assay [8] it was 0.29 µM. In assay [2], this compound came in with an EC50 of 20 µM. In assay [3], this compound registered a CC50 of 191 µM. For the same compound, the Selectivity index in assay [6] was determined as 9.6.

In the case of `O=C(O)C(=O)/C=C(\O)c1ccc2c(c1)c(=O)c(/C(O)=C/C(=O)C(=O)O)cn2Cc1ccc(F)cc1`, in assay [3], the CC50 was over 200 µM.

Regarding `O=C(O)C(=O)/C=C(\O)c1ccc2ncc(/C(O)=C/C(=O)C(=O)O)c(O)c2c1`, the IC50 was over 4.1 µM in assay [1]; 22 µM in assay [4]; 0.43 µM in assay [5]; 9.1 µM in assay [7]; 2.9 µM in assay [8]. Besides, in assay [2], a half-maximal effect (EC50) was put at 36.3 µM. In addition, the CC50 in assay [3] was over 200 µM. In addition, the Selectivity index in assay [6] amounted to 5.5.

Take `CCOC(=O)C(=O)/C=C(\O)c1ccc2ncc(/C(O)=C/C(=O)C(=O)OCC)c(O)c2c1`: the IC50 in assay [1] is over 333 µM; in assay [4], 28 µM; in assay [5] it was 80 µM; in assay [7] it was 77 µM; in assay [8], 39 µM. This compound also displayed an EC50 in assay [2] of over 50 µM. This compound also displayed a CC50 in assay [3] of over 200 µM.
